From patent publication US10815460B2, “Three-dimensional differentiation of epiblast spheroids to kidney organoids models stage-specific epithelial physiology, morphogenesis, and disease” (THE BRIGHAM AND WOMEN'S HOSPITAL, INC., priority 2015, dated 2020)
“Also recorded” adds a separate entry of the source.

Experiments:
Assay type in all cases: cell-based, human
tubular organoids = assay: Transport of fluorescent cargoes in tubular organoids
Experimental: (§1) To test permeability, media was supplemented with 20 mM HEPES plus Lucifer Yellow™ carbohydrazide potassium salt (Invitrogen, 38 μM) and Rhodamine-8 isothiocyanate dextran (Sigma, 0.5 μM), and imaged by confocal microscopy. For microinjection, 5 μM rhodamine-conjugated dextran solution in mTeSR1 was diluted 1:1 with Phenol Red Solution (0.5%, Sigma) for visualization. 2 nl was microinjected via a pulled glass capillary microneedle on a Nanoject-2 micromanipulator, and monitored in real-time by wide-field epifluorescence. For TEER, 50,000 hPSCs were plated on 24-well transwell plates (Corning) pre-coated with dilute […]™. […] TEER was measured using an EVOM 2™ device (World Precision Instruments).
as §1, with “Rhodamine-B” for “Rhodamine-8”, “0.5” for “0.5 μM),”, “5” for “5 μM”

hPSC spheroids = assay: hPSC spheroid cavity formation (lumenogenesis) in 3D sandwich culture
Description: Cell lines included H9 (WA09), BJ, HDFn, hLR5, hfib2-iPS4, and hfib2-iPS5 (human) and J1, R1, and v6 (mouse). Cells were maintained feeder-free on 3% Reduced Growth Factor GelTrex™ (Life Technologies) for at least one passage in media (mTeSR1 for hPSCs; […] supplement+2i in for mESCs; hESC conditioned media (CM)+leukemia inhibitory factor (LIF)+dox for hLR5 iPSCs) and dissociated with Accutase® or TrypLE™. LD-iPSCs were derived from native hLR5 iPSCs by withdrawing LIF and doxycycline and substituting with FGF2. For thin gel sandwich colonies, cells were plated at 60,000 (primed) or 30,000 (native) cells/well of a 24-well plate or 4-well chamber slide pre-coated with GelTrex™ in media supplemented with 10 μM Rho-kinase inhibitor Y27632 (StemGent). The following day the media was replaced with 500 μL 1.5% GelTrex™ in mTeSR1. Media was changed after 24 hours. […]
For fluorescence intensity quantifications, images were taken in a single imaging session and at identical exposures and processed identically. The number of cavitated colonies (ellipsoid with lumen) versus flat colonies (non-ellipsoid or without a lumen) was scored manually in phase contrast images of living cells, in which lumens were discerned more easily than in fixed samples. For apoptosis, cleaved caspase-3 expression was scored manually, confirmed by nuclear condensation, and divided by the total number of nuclei per wide-field epifluorescent image. […] For each colony, the summed ZO-1 expressing area was expressed as a percentage of the total surface area and then averaged. To quantify intensities, line scans of equal length were drawn through randomly selected structures imaged with identical exposures to obtain raw fluorescence values in NIS Elements software (Nikon). […] For CHIR-induced differentiation, […] individual cells were identified in low-magnification immunofluorescence images using Cell Profiler 2.0 and fluorescence intensities were measured automatically. […] Immunoblots were quantified using the ImageJ Gel Analyzer. […]

epiblast spheroids = assay: Epiblast spheroids treated with titrations of cisplatin and gentamicin (KIM-1, toxicity)
Description: FIG. 20. […] Scale bars, 50 μm.
(§2) FIG. 27. […] (a) Co-localization of KIM-1 antibody AKG7 with LTL or (b) with a second KIM-1 antibody (KIMlab2). […] (e) Phase contrast time course of tubules in culture. After 120 days of culture (d120), tubules were fixed and stained for LTL. (f) Whole well of a 96-well plate showing kidney organoids. Scale bars, 50 μm. Error bars, s.e.m.

kidney organoids = assay: KIM-1 induction in kidney organoids treated with nephrotoxic drugs
Description: as §2

hPSCs = assay: BRY immunofluorescence in hPSC cultures treated with CHIR in mTeSR1; conditions: 5˜M CHIR, 3D versus 2D cultures plated side-by-side
Description: FIG. 2. Cavitated spheroids represent epiblast. (a) Schematic of serial passaging experiment. (b) Representative brightfield images of hPSCs in 3D cultures which were dissociated (colored frames) and passaged (matching colored arrows). Dashed arrows represent serial passages in the 3D condition. […] (c) Hematoxylin and eosin-stained sections of teratomas generated from hPSC serial 3D passages p3, p6, and p9 showing pigmented epithelium (ectoderm), cartilage (mesoderm), and glandular epithelium (endoderm). (d) Cell number (average of duplicate counts for each time point, or AVG of all time points) in 2D and 3D cultures 72 hours after plating. […] (h) Morphology and (i) quantification (n=3) of hPSC colonies cultured in mTeSR1 plus CHIR, compared to controls in mTeSR1 alone. […]
For fluorescence intensity quantifications, images were taken in a single imaging session and at identical exposures and processed identically. The number of cavitated colonies (ellipsoid with lumen) versus flat colonies (non-ellipsoid or without a lumen) was scored manually in phase contrast images of living cells, in which lumens were discerned more easily than in fixed samples. For apoptosis, cleaved caspase-3 expression was scored manually, confirmed by nuclear condensation, and divided by the total number of nuclei per wide-field epifluorescent image. […] Immunoblots were quantified using the ImageJ Gel Analyzer. […]

Q: For C/C1=C/C(=O)O[C@@H]2C[C@@H](CC[C@H](C)/C=C\CC1)O[C@@](O)([C@@H]1CSC(=O)N1)C2 [latrunculin (Lat)B, Latrunculin B], which “effect on RD accumulation in tubular organoids” value (tubular organoids; co-incubation, 2 μM LatB) is on record?
A: significantly reduced RD accumulation

Q: With O=C(O)CN(CCN(CC(=O)O)CC(=O)O)CC(=O)O [EDTA] as the molecule, how does the “luminal RD signal intensity in loaded organoids” value (tubular organoids; 0.5 mM EDTA for one hour) read?
A: decreased

Q: What does the source list for protamine sulfate [PS]?
A: 3D cavity formation (hPSC spheroids; 8 μg/ml protamine sulfate): strongly inhibited 3D cavity formation; podocalyxin localization (hPSC spheroids; 8 μg/ml protamine sulfate): mislocalization of podocalyxin to dispersed patches

Q: gentamicin was tested. Which “sensitivity of epiblast spheroids to drug” value (epiblast spheroids) did it give?
A: exhibited dose-dependent sensitivity

Q: What about the “KIM-1 upregulation in epiblast spheroids” value (epiblast spheroids; any dose including 5 mM gentamicin) of the same molecule?
A: did not upregulate KIM-1; also recorded: No KIM-1 expression is observed

Q: And the “KIM-1 expression in organoid tubules” value (kidney organoids; increasing concentrations, 36-48 hours, immunofluorescence)?
A: expressed apical kidney injury molecule-1 (KIM-1); also recorded: observed at moderate, sub-toxic doses

Q: What about the “concentration sufficient to induce KIM-1 in kidney organoids” value (kidney organoids; kidney organoids) of the same molecule?
A: ~5000 µM

Q: Which spheroid formation (hPSC spheroids; CHIR added at the time of sandwiching, in mTeSR1) does the source give for Cc1c[nH]c(-c2cnc(NCCNc3ccc(C#N)cn3)nc2-c2ccc(Cl)cc2Cl)n1 [CHIR] here?
A: inhibited spheroid formation in a dose-dependent manner

Q: And the BRY expression (hPSCs)?
A: induced higher levels of BRY expression in 3D cultures than in 2D cultures
